Each block holds one molecule with its values, some of them ahead of it.
Key:
[1] = Redox potential measurement against Ag/AgCl reference electrode; assay type: physicochemical; conditions: for Redox potential: urea-H2O2 with H2O2 content of 15%
[2] = pH of the agent solutions; assay type: physicochemical; conditions: for pH of solution prior to application: 5% concentration, solution applied to nail (FIG. 7)
[3] = 14C mannitol nail penetration study (nail diffusion cell); assay type: in vitro ADME, human; conditions: single penetration enhancer
Description: The single penetration enhancers were made up in the appropriate solvent and spiked with ^14C mannitol (10 μl of the stock ^14C mannitol). When more than one penetration enhancer was applied to the nails, only the last penetration enhancer was spiked with ^14C mannitol prior to nail application. ^14C mannitol with no penetration enhancer was used as a control.
Pre-calibrated nail diffusion cells were assembled with full thickness human nail. The receiver fluid, which consisted of a 20% ethanol/water mixture, was put into the receiver well up to the etched mark on the side arm. A magnetic follower was inserted and the cells were then placed on a magnetic stirrer in a water bath maintained at 32° C. Cells were checked for leakage and air bubbles. […] This was to ensure that no cells contained any residual radioactivity and these readings were also taken as the background for each cell. […]
After taking the background reading (described in the section above) 50 μl of ^3H water (ca. 18000 dpm) was placed on top of the nail in the assembled nail diffusion cell, using a pre-calibrated Gilson pipette. […] This value was used to normalise each nail and, if values of radioactivity were considered too high, then cells were rejected due to leaks. […]

[4] = Terbinafine diffusion study (ChubTur diffusion cell); assay type: in vitro ADME, human
Description: Human nail samples (full thickness) of ca. 3 mm diameter were positioned between the two halves of the specifically designed ChubTur™ diffusion cell and clamped together. The receptor compartment was filled with a previously sonicated suitable buffer system to ensure sink conditions and the cells were fixed on a perspex holder mounted on a magnetic stirrer in a water bath maintained at 32° C. The receptor chamber contents were continuously agitated by small PTFE-coated magnetic followers driven by a submersible magnetic stirrer. A known amount of formulation/drug solution was applied to the surface of the nail (infinite dose) and at regular time intervals samples of buffer were taken from the receptor compartment, replaced with fresh receptor medium and assayed for drug content using HPLC.

[5] = H2O2 concentration 0.005 % w/w, n = 3
[6] = H2O2 concentration 0.01 % w/w, n = 3
[7] = H2O2 concentration 0.05 % w/w, n = 3
[8] = H2O2 concentration 0.1 % w/w, n = 3
[9] = H2O2 concentration 1 % w/w, n = 3
[10] = H2O2 concentration 10 % w/w, n = 3
[11] = H2O2 concentration 20 % w/w, n = 3
[12] = H2O2 concentration 30 % w/w, n = 3
[13] = H2O2 concentration 32.5 % w/w, n = 3
[14] = H2O2 concentration 35 % w/w, n = 3
[15] = Urea-H2O2, H2O2 content 0.0025 % w/w, n = 3
[16] = Urea-H2O2, H2O2 content 0.005 % w/w, n = 3
[17] = Urea-H2O2, H2O2 content 0.025 % w/w, n = 3
[18] = Urea-H2O2, H2O2 content 0.05 % w/w, n = 3
[19] = Urea-H2O2, H2O2 content 0.5 % w/w, n = 3
[20] = Urea-H2O2, H2O2 content 5 % w/w, n = 3
[21] = Urea-H2O2, H2O2 content 10 % w/w, n = 3
[22] = Urea-H2O2, H2O2 content 15 % w/w, n = 3
[23] = Urea-H2O2, H2O2 content 16.25 % w/w, n = 3
[24] = Urea-H2O2, H2O2 content 17.5 % w/w, n = 3
[25] = DTT concentration 0.005 % w/w, n = 2
[26] = DTT concentration 0.01 % w/w, n = 2
[27] = DTT concentration 0.05 % w/w, n = 2
[28] = DTT concentration 0.1 % w/w, n = 2
[29] = DTT concentration 1 % w/w, n = 2
[30] = DTT concentration 5 % w/w, n = 2
[31] = DTT concentration 7.5 % w/w, n = 2
[32] = DTT concentration 10 % w/w, n = 2
[33] = TA concentration 0.001% w/w, n = 3
[34] = TA concentration 0.005% w/w, n = 3
[35] = TA concentration 0.01% w/w, n = 3
[36] = TA concentration 0.05% w/w, n = 3
[37] = TA concentration 0.1% w/w, n = 3
[38] = TA concentration 2.5% w/w, n = 3
[39] = TA concentration 7.5% w/w, n = 3
[40] = TA concentration 10% w/w, n = 3
[41] = TA concentration 20% w/w, n = 3

Compound: O=c1cc[nH]c(=S)[nH]1 [Thiouracil]
Mean Redox Potential ([1]; 0.5M concentration, n = 3): 53.4 mV
Mean pH ([2]; 0.5M concentration, n = 3): 6.28

Compound: N.O=C(O)CS [Ammonium thioglycolate]
Mean Redox Potential ([1]; 0.5M concentration, n = 3): −235.9 mV
Mean pH ([2]; 0.5M concentration, n = 3): 6.29

Compound: CC12CCC(CC1)C(C)(C)O2 [Cineol]
Mean Redox Potential ([1]; 0.5M concentration, n = 3): 67.2 mV
Mean pH ([2]; 0.5M concentration, n = 3): 5.91

Compound: O=C([O-])CS.O=C([O-])CS.[Ca+2] [Calcium thioglycolate]
Mean Redox Potential ([1]; 0.5M concentration, n = 3): −531.3 mV
Mean pH ([2]; 0.5M concentration, n = 3): 11.74
pH of solution prior to application [2]: 11.43

Compound: O=C([O-])CS.[Na+] [Sodium thioglycolate]
Mean Redox Potential ([1]; 0.5M concentration, n = 3): −281.7 mV
Mean pH ([2]; 0.5M concentration, n = 3): 6.90

Compound: Cl.N[C@@H](CS)C(=O)O.O [Cysteine, L-Cysteine hydrochloride hydrate]
Mean Redox Potential ([1]; 0.5M concentration, n = 3): −79.3 mV

Compound: O=S(=O)([O-])OOS(=O)(=O)[O-].[K+].[K+] [Potassium persulphate]
Mean Redox Potential ([1]; 0.5M concentration, n = 3): 402.5 mV
Mean pH ([2]; 0.5M concentration, n = 3): 2.83

Compound: O=C(O)CS [Thioglycolic acid]
permeation of 14C mannitol through full thickness human nail ([3]; Saturated TA (50%), rank among the enhancers (FIG. 2)): best penetration enhancer of mannitol
permeation of 14C mannitol through full thickness human nail ([3]; TA 5%, compared to DTT (FIG. 2)): drop below that of the DTT
Mean Redox Potential ([1]; 0.5M concentration, n = 3): −132.8 mV
Mean Redox Potential ([1]; 5% TA solution, approximate pH 2 (adjusted using NaOH), n = 3): −70.4
Mean Redox Potential ([1]; 5% TA solution, approximate pH 3 (adjusted using NaOH), n = 3): −133.1
Mean Redox Potential ([1]; 5% TA solution, approximate pH 4 (adjusted using NaOH), n = 3): −166.7
Mean Redox Potential ([1]; 5% TA solution, approximate pH 5 (adjusted using NaOH), n = 3): −179.5
Mean Redox Potential ([1]; 5% TA solution, approximate pH 6 (adjusted using NaOH), n = 3): −192.9
Mean Redox Potential ([1]; 5% TA solution, approximate pH 8 (adjusted using NaOH), n = 3): −272.3
Mean Redox Potential ([1]; 5% TA solution, approximate pH 10 (adjusted using NaOH), n = 3): −386.5
Mean Redox Potential ([1]; 5% TA solution, approximate pH 11 (adjusted using NaOH), n = 3): −433.8
Mean Redox Potential [1, 33]: −47.7
Mean Redox Potential [1, 34]: −56.6
Mean Redox Potential [1, 35]: −67.5
Mean Redox Potential [1, 36]: −85.6
Mean Redox Potential [1, 37]: −97.4
Mean Redox Potential ([1]; TA concentration 1% w/w, n = 3): −119.8
Mean Redox Potential [1, 38]: −126.5
Mean Redox Potential ([1]; TA concentration 5% w/w, n = 3): −131.5
Mean Redox Potential [1, 39]: −132.7
Mean Redox Potential [1, 40]: −132.8
Mean Redox Potential [1, 41]: −128.7
Mean pH ([2]; 0.5M concentration, n = 3): 2.13
pH of solution prior to application [2]: 2.12
Mean pH [2, 33]: 2.97
Mean pH [2, 34]: 3.12
Mean pH [2, 35]: 3.05
Mean pH [2, 36]: 2.53
Mean pH [2, 37]: 2.66
Mean pH ([2]; TA concentration 1% w/w, n = 3): 2.23
Mean pH [2, 38]: 1.71
Mean pH ([2]; TA concentration 5% w/w, n = 3): 1.85
Mean pH [2, 39]: 1.76
Mean pH [2, 40]: 1.83
Mean pH [2, 41]: 1.61

The remaining lines, values ahead:

Mean Redox Potential ([1]; 0.5M concentration, n = 3): 277.3 mV
Mean Redox Potential [1, 5]: 142.3
Mean Redox Potential [1, 6]: 153.0
Mean Redox Potential [1, 7]: 200.4
Mean Redox Potential [1, 8]: 193.5
Mean Redox Potential [1, 9]: 231.6
Mean Redox Potential [1, 10]: 357.2
Mean Redox Potential [1, 11]: 402.8
Mean Redox Potential [1, 12]: 430.4
Mean Redox Potential [1, 13]: 437.9
Mean Redox Potential [1, 14]: 444.5
Mean pH ([2]; 0.5M concentration, n = 3): 6.21
Mean pH [2, 5]: 7.56
Mean pH [2, 6]: 7.46
Mean pH [2, 7]: 6.78
Mean pH [2, 8]: 6.71
Mean pH [2, 9]: 6.17
Mean pH [2, 10]: 3.79
Mean pH [2, 11]: 3.16
Mean pH [2, 12]: 2.64
Mean pH [2, 13]: 2.54
Mean pH [2, 14]: 2.55
Compound: OO [Hydrogen peroxide]

Mean Redox Potential ([1]; 0.5M concentration, n = 3): 349.7 mV
Mean Redox Potential [1, 15]: 189.4 mV
Mean Redox Potential [1, 16]: 191.3 mV
Mean Redox Potential [1, 17]: 199.5 mV
Mean Redox Potential [1, 18]: 208.1 mV
Mean Redox Potential [1, 19]: 293.6 mV
Mean Redox Potential [1, 20]: 372.3 mV
Mean Redox Potential [1, 21]: 377.9 mV
Mean Redox Potential [1, 22]: 380.3 mV
Mean Redox Potential [1, 23]: 382.9 mV
Mean Redox Potential [1, 24]: 382.3 mV
Redox potential ([1]; approximate pH 2 (adjusted using HCl and NaOH), n = 3): 459.8 mV
Redox potential ([1]; approximate pH 4 (adjusted using HCl and NaOH), n = 3): 334.1 mV
Redox potential ([1]; approximate pH 6 (adjusted using HCl and NaOH), n = 3): 284.0 mV
Redox potential ([1]; approximate pH 8 (adjusted using HCl and NaOH), n = 3): 194.2 mV
Redox potential ([1]; approximate pH 10 (adjusted using HCl and NaOH), n = 3): 16.1 mV
Mean pH ([2]; 0.5M concentration, n = 3): 2.72
Mean pH [2, 15]: 6.07
Mean pH [2, 16]: 6.17
Mean pH [2, 17]: 6.56
Mean pH [2, 18]: 6.81
Mean pH [2, 19]: 5.31
Mean pH [2, 20]: 5.10
Mean pH [2, 21]: 4.23
Mean pH [2, 22]: 4.04
Mean pH [2, 23]: 3.87
Mean pH [2, 24]: 3.33
Compound: NC(N)=O.OO [Urea hydrogen Peroxide, Urea hydrogen peroxide addition compound]

Mean Redox Potential ([1]; 0.5M concentration, n = 3): 247.7 mV
Mean pH ([2]; 0.5M concentration, n = 3): 2.03
Compound: O=C(O)CO [Glycolic acid]

Mean Redox Potential ([1]; 0.5M concentration, n = 3): −241.0 mV
Mean Redox Potential [1, 25]: −122.7
Mean Redox Potential [1, 26]: −134.9
Mean Redox Potential [1, 27]: −169.19
Mean Redox Potential [1, 28]: −189.65
Mean Redox Potential [1, 29]: −185.75
Mean Redox Potential [1, 30]: −201.25
Mean Redox Potential [1, 31]: −209.65
Mean Redox Potential [1, 32]: −193.1
Mean pH ([2]; 0.5M concentration, n = 3): 2.64
Mean pH [2, 25]: 8.07
Mean pH [2, 26]: 8.00
Mean pH [2, 27]: 7.80
Mean pH [2, 28]: 7.59
Mean pH [2, 29]: 7.01
Mean pH [2, 30]: 6.20
Mean pH [2, 31]: 6.24
Mean pH [2, 32]: 5.69
Compound: O[C@@H](CS)[C@@H](O)CS (racemic) [DTT, 1,4-dithio-DL-threitol]

Mean Redox Potential ([1]; 0.5M concentration, n = 3): 8.6 mV
Mean pH ([2]; 0.5M concentration, n = 3): 5.67
Compound: Oc1cccc(O)c1 [Resorcinol]

Mean Redox Potential ([1]; 0.5M concentration, n = 3): 254.8 mV
Mean pH ([2]; 0.5M concentration, n = 3): 1.33
Compound: O=C(O)C(=O)O [Oxalic acid]

Mean Redox Potential ([1]; 0.5M concentration, n = 3): 114.1 mV
Mean pH ([2]; 0.5M concentration, n = 3): 3.54
Compound: O=C(O)/C=C/c1ccc(O)cc1 [p-coumaric acid]

amount of drug penetrated the nail ([4]; nails soaked in 50:50 ethanol/water (control) for 20 h before drug, after 214 h): 44±13 μg per cm^2
amount of drug penetrating the nail ([4]; pre-treatment with TA then urea-H2O2 for 30 min): less than 10 μg per cm^2
amount of drug penetrating the nail ([4]; pre-treatment with TA then urea-H2O2 for 1 h): less than 10 μg per cm^2
amount of terbinafine penetrating the human nail ([4]; pre-treatment with TA then urea-H2O2 for up to 20 h each, after 315 h): 3329±1842 μg per cm^2
amount of drug penetrating the nail ([4]; pre-treatment with thioglycolic acid alone): 861±135 μg per cm^2
amount of drug penetrating the nail ([4]; pre-treatment with urea-hydrogen peroxide alone): 47±33 μg per cm^2
effect of pre-treatment on the amount of drug penetrating the nail ([4]; pre-treatment with urea-hydrogen peroxide versus control, p>0.05, ANOVA): no significant effect
amount of drug penetrating the nail ([4]; thioglycolic acid and urea-H2O2 applied sequentially prior to terbinafine, after 219 h): 2308±1332 μg per cm^2
Compound: CN(C/C=C/C#CC(C)(C)C)Cc1cccc2ccccc12 [terbinafine]
